Measured values as given in patent US20260042764A1, “COMPOSITIONS AND METHODS FOR INHIBITION OF KRAS” (TheRas, Inc., priority 2022, published 2026).

Columns and labels:
GP2d cells (KRAS G12D) = experiment: Cell-based pERK HTRF assay in GP2d cell (Biological Example 2); settings: GP2d (KRAS G12D) cells
Outline: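 60 min compound, 0.25% DMSO, 9-pt half-log curve from 1 μM or 100 nM; DMEM/10% FBS.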

[1] = molecular target: T1, Avi-KRAS G12V (1-169) GppNHp/RAF1 RBD-3xFLAG (52-151) (Homo sapiens, UniProt P01116, G12V); experiment: Raf1-KRAS G12V-GppNHP disruption HTRF assay (Biological Example 1); format: binding
T1 construct: Avi-KRAS G12V (1-169)
T1 sequence (P01116 1-169 isoform P01116-2 G12V): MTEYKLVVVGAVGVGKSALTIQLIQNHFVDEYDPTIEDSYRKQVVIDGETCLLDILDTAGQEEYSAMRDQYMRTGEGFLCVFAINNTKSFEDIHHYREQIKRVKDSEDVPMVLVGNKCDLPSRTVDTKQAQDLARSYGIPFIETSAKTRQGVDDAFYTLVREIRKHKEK
Outline: (§1)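 Percent activity versus DMSO (100%) was derived from HTRF signal after KRAS–RAF1 RBD protein mix was incubated 1 h at room temperature with shaking and detection reagents were added for a further 1 h.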

[2] = molecular target: T2, Avi-KRAS WT (2-169) GTP/RAF1 RBD-3xFLAG (51-131) (Homo sapiens, UniProt P01116); experiment: Raf1-KRAS WT-GTP disruption HTRF assay (Biological Example 3); format: binding; settings: KRAS WT, GTP-loaded
T2 construct: Avi-KRAS WT (2-169)
T2 sequence (P01116 2-169 isoform P01116-2): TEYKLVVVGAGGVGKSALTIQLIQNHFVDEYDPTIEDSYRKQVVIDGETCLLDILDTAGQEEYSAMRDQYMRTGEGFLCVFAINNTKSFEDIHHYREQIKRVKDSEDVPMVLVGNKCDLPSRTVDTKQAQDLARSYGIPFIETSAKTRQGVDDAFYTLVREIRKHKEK
Outline: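 An HTRF assay measured disruption of 50 nM Avi-KRAS (2-169)-GTP (WT, G12C, G12D or G12V) bound to RAF1 RBD-3xFLAG (51-131). Buffer was Tris pH 7.5 with 5 mM MgCl2 and 10% DMSO. Compounds (30–0.005 μM, 3-fold, 10 points) were incubated 1 h at room temperature, and activity is given as % of DMSO.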

[3] = molecular target: T3, Avi-KRAS G12D (1-169) GppNHp/RAF1 RBD-3xFLAG (52-151) (Homo sapiens, UniProt P01116, G12D); experiment: Raf1-KRAS G12D-GppNHP disruption HTRF assay (Biological Example 1); format: binding
T3 construct: Avi-KRAS G12D (1-169)
T3 sequence (P01116 1-169 isoform P01116-2 G12D): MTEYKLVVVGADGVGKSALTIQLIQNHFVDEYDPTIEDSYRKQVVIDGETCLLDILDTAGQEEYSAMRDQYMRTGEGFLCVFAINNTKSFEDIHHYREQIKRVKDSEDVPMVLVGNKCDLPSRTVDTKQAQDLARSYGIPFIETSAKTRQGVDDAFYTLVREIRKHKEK
Outline: as §1

[4] = KRAS G12V, GppNHp-loaded, class symbols
[5] = KRAS G12D, GppNHp-loaded, class symbols
[6] = KRAS G12V, GppNHp-loaded, Table 11
[7] = KRAS G12D, GppNHp-loaded, Table 11

Row | SMILES | IC50 (GP2d cells (KRAS G12D); GP2d) | IC50 (GP2d cells (KRAS G12D); GP2d, pERK HTRF) | IC50 ([1]; KRAS G12V-GppNHp/RAF1 RBD HTRF) | IC50 [2] | IC50 ([3]; KRAS G12D-GppNHp/RAF1 RBD HTRF) | IC50 (GP2d cells (KRAS G12D); GP2d, pERK HTRF, class symbols) | IC50 [1, 4] | IC50 [3, 5] | IC50 (GP2d cells (KRAS G12D)) | IC50 [1, 6] | IC50 [3, 7] | IC50 (GP2d cells (KRAS G12D); pERK HTRF)
1 | [2H]C1([2H])O[C@@H]2C[C@H]1N(c1nc(OC[C@@]34CCCN3C[C@H](F)C4)nc3c(F)c(-c4ccc(F)c5sc(N)c(C#N)c45)c(C(F)(F)F)cc13)C2 [Compound 371] | < 0.1 µM | < 0.1 µM | 0.1 to 1 µM | 0.1 to 1 µM | 0.1 to 1 µM |  |  |  |  |  |  | 
2 | N#Cc1c(N)sc2c(F)ccc(-c3c(C(F)(F)F)cc4c(N5C[C@H]6C[C@@H]5CO6)nc(OC[C@@]56CCCN5C[C@H](F)C6)nc4c3F)c12 [Compound 253, 2-amino-7-fluoro-4-[8-fluoro-2-[[(2R,8S)-2-fluoro-1,2,3,5,6,7-hexahydropyrrolizin-8-yl]methoxy]-4-[(1R,4R)-2-oxa-5-azabicyclo[2.2.1]heptan-5-yl]-6-(trifluoromethyl)quinazolin-7-yl]benzothiophene-3-carbonitrile] | < 0.1 µM | < 0.1 µM |  | 0.1 to 1 µM |  |  |  |  |  | 0.1 to 1 µM | 0.1 to 1 µM | 
3 | N#Cc1c(N)sc2c(F)ccc(-c3c(C(F)(F)F)cc4c(N5CCn6nc(C(=O)N7CCOCC7)cc6C5)nc(OCC56CCCN5CC(F)C6)nc4c3F)c12 (stereo not shown) [Compound 646] | < 0.1 µM |  |  | 1 to 10 µM |  | < 0.1 µM | < 0.1 µM | < 0.1 µM |  |  |  | 
4 | CC(=O)N1CC(N(C)c2nc(OCC34CCCN3CC(F)C4)nc3c(F)c(-c4ccc(F)c5sc(N)c(C#N)c45)c(C(F)(F)F)cc23)CC1C (stereo not shown) [Compound 291] |  |  | 0.1 to 1 µM | 0.1 to 1 µM | 0.1 to 1 µM |  |  |  | < 0.1 µM |  |  | < 0.1 µM
5 | N#Cc1c(N)sc2c(F)ccc(-c3c(C(F)(F)F)cc4c(N5CC6CC(C5)O6)nc(OC[C@@]56CCCN5C[C@H](F)C6)nc4c3F)c12 (single isomer, unassigned) [Compound 275] | < 0.1 µM |  |  | 0.1 to 1 µM |  |  |  |  |  | 0.1 to 1 µM | 0.1 to 1 µM | < 0.1 µM
6 | CCN(c1nc(OC[C@@]23CCCN2C[C@H](F)C3)nc2c(F)c(-c3ccc(F)c4sc(N)c(C#N)c34)c(C(F)(F)F)cc12)[C@H]1CCN(C(=O)[C@@H]2C[C@@H]2C)C1 (atropisomer, axis not shown) [Compound 689] | < 0.1 µM |  |  | 0.1 to 1 µM |  | < 0.1 µM | < 0.1 µM | < 0.1 µM |  |  |  | 

More lines, main results first:

Row | IC50 (GP2d cells (KRAS G12D); GP2d) | IC50 (GP2d cells (KRAS G12D); GP2d, pERK HTRF) | IC50 ([1]; KRAS G12V-GppNHp/RAF1 RBD HTRF) | IC50 [2] | IC50 ([3]; KRAS G12D-GppNHp/RAF1 RBD HTRF) | IC50 (GP2d cells (KRAS G12D); GP2d, pERK HTRF, class symbols) | IC50 [1, 4] | IC50 [3, 5] | IC50 (GP2d cells (KRAS G12D)) | SMILES | IC50 [1, 6] | IC50 [3, 7] | IC50 (GP2d cells (KRAS G12D); pERK HTRF)
7 | < 0.1 µM |  |  | 1 to 10 µM |  | < 0.1 µM | 0.1 to 1 µM | 0.1 to 1 µM |  | CCN(c1nc(OC[C@@H]2C[C@@H](OC)CN2C)nc2c(F)c(-c3ccc(F)c4sc(N)c(C#N)c34)c(C(F)(F)F)cc12)[C@H]1CCN(C(=O)C(C)C)C1 [Compound 706] |  |  | 
8 | < 0.1 µM |  |  | 0.1 to 1 µM |  | < 0.1 µM | < 0.1 µM | < 0.1 µM |  | CCN(c1nc(OC[C@@]23CCCN2C[C@H](F)C3)nc2c(F)c(-c3ccc(F)c4sc(N)c(C#N)c34)c(C(F)(F)F)cc12)[C@H]1C[C@H](COC)N(C(=O)C2CC2)C1 (atropisomer, axis not shown) [Compound 696] |  |  | 
9 | < 0.1 µM |  |  | 0.1 to 1 µM |  | < 0.1 µM | 0.1 to 1 µM | < 0.1 µM |  | CCN(c1nc(OC[C@]23CCCN2C[C@H](F)C3)nc2c(F)c(-c3ccc(F)c4sc(N)c(C#N)c34)c(C(F)(F)F)cc12)[C@H]1CCN(C(=O)C(C)C)C1 [Compound 705] |  |  | 
10 |  |  |  | 1 to 10 µM |  | < 0.1 µM | 1 to 10 µM | 0.1 to 1 µM | < 0.1 µM | CCN(c1nc(OC[C@@]23CCCN2C[C@H](F)C3)nc2c(F)c(-c3ccc(F)c4sc(N)c(C#N)c34)c(C(F)(F)F)cc12)[C@@H]1CC(=O)N(C2CC2)C1 (atropisomer, axis not shown) [Compound 703] |  |  | 
11 | < 0.1 µM |  |  | 0.1 to 1 µM |  | < 0.1 µM | < 0.1 µM | < 0.1 µM |  | CCN(c1nc(OC[C@@]23CCCN2C[C@H](F)C3)nc2c(F)c(-c3ccc(F)c4sc(N)c(C#N)c34)c(C(F)(F)F)cc12)[C@H]1C[C@H](C)N(C(=O)N2CC(OC)C2)C1 (atropisomer, axis not shown) [Compound 764] |  |  | 
